Where “and” joins values, the source holds several entries; their conditions need not be identical. Identical values can stand only once.
tested on: Plasmodium falciparum; assay: GSK_TCMDC: Inhibition of Plasmodium falciparum 3D7 in whole erythrocytes, using parasite LDH activity as an index of growth.; type: functional, organism-based; conditions: not given

| SMILES | XC50 |
| --- | --- |
| O=C(/C=C/c1ccc(Cl)c(Cl)c1)NC1CCC(CN2CCC(c3c[nH]c4ccc(O)cc34)CC2)CC1 (stereo not given) | 417 nM and 140 nM |

same assay, conditions: Plasmodium falciparum, 3D7

| SMILES | XC50 [nM] |
| --- | --- |
| CC(C)c1ccc(NC(=O)NC2CCN(CCCCCN(C)C(=O)/C=C/c3ccc(Cl)c(Cl)c3)C2)cc1 (stereo not given) | 830 |
| O=C(Nc1ccc(F)c(F)c1)c1ccc(CN2CCCN(Cc3cccc(O)c3)CC2)cc1 | 836 |
| CC(=NNc1nc2ccccc2s1)c1ccccn1 | 1120 |
| NS(=O)(=O)c1cccc(Br)c1 | 888 |
| Cc1ccc2[nH]c(-c3cc(-c4ccc(OCc5ccccc5)cc4)cnc3N)nc2c1 | 1680 |
| CS(=O)(=O)NCCCNCc1ccc(-c2ccc(-c3nc4cc(C(F)(F)F)ccc4[nH]3)s2)cc1 | 515 |
| O=C(/C=C/c1ccc(Cl)c(Cl)c1)NCCCCCCN1CCN(C(=O)Nc2cc(Cl)nc(Cl)c2)CC1 | 784 |
| Oc1ccccc1CNC1CCCCC1NCc1ccccc1O (stereo not given) | 950 |
| Cc1ccc(NC(=O)NC2CCN(c3ccnc4ccccc34)CC2)cc1 | 790 |
| CS(=O)(=O)Nc1ccc2c(C3CCN(CC4CCN(C(=O)/C=C/c5ccc(Cl)c(Cl)c5)CC4)CC3)c[nH]c2c1 | 761 |
| COc1cc2ncnc(Nc3ccc4nc(Cc5ccccc5)[nH]c4c3)c2cc1OC | 1480 |
| Cc1cccc2nc(-c3cccc(-c4cccc(CN5CCN(c6ccncc6)CC5)c4)c3)[nH]c12 | 200 |
| CCN(CC)CCCC(C)Nc1c2ccccc2nc2ccc3ccccc3c12 (stereo not given) | 1040 |
| O=C(/C=C/c1ccc(Cl)c(Cl)c1)NCCCCN1CCC(c2c[nH]c3ccccc23)CC1 | 859 |
| Cc1cccc(CNc2nc(C)cc(N[C@@H](Cc3ccccc3)C(=O)NCCc3ccccc3)n2)c1 | 673 |
| O=C(Nc1ccc2c(c1)CCN2C1CCN(Cc2cccc(C(F)(F)F)c2)C1)c1ccco1 (stereo not given) | 564 |
| c1ccc(-c2cccc(-c3ccccn3)n2)nc1 [TERPYRIDINE] | 901 |
| Cc1cccc2nc(-c3ccc(-c4ccc(CNCc5ccccc5)cc4)s3)[nH]c12 | 208 |
| CC(=O)Nc1nc(C(=O)Nc2cccc(-c3cccc(-c4nc5cc(F)ccc5[nH]4)c3)c2)cs1 | 89.2 |
| C=CCOC(=O)N1CCC(CNCc2cccc(-c3ccc(-c4nc5cccc(C)c5[nH]4)s3)c2)C1 (stereo not given) | 248 |
| OC[C@H](Nc1nc(C(Oc2ccccc2)c2ccccc2)nc2[nH]ncc12)c1ccccc1 (stereo not given in full) | 854 |
| N#Cc1ccc2c(c1)CN(C1CCC(NC(=O)C3=Cc4cc(Cl)ccc4OC3)CC1)CCC2 (stereo not given) | 1330 |
| Cc1cccc2nc(-c3cccc(-c4ccc(NC(=O)CN5CCN(C)CC5)cc4)c3)[nH]c12 | 562 |

| SMILES | XC50 [nM] |
| --- | --- |
| COc1cccc(C2CCN(CCN3CCC(CNC(=O)c4ccc(-c5ccc(C(F)(F)F)cc5)cc4)CC3)CC2)c1 | 886 |
| COc1ccc(Nc2nccc(N3CCC(NC(=O)Nc4ccc5c(c4)OCO5)C3)n2)cc1 (stereo not given) | 599 |
| CC(C)c1ccc(OCC(O)CN(CCN2CCOCC2)C(=O)Nc2ccc(Br)cc2)cc1 (stereo not given) | 717 |
| O=C(Nc1ccc(-c2ccc(-c3nc4ccccc4[nH]3)cc2)cc1)Nc1ccc(Cl)c(Cl)c1 | 98.8 |
| COc1ccc(OC)c(Cc2cnc3nc(N)nc(N)c3c2C)c1 [PIRITREXIM] | 10.2 |
| COc1cc2nc(NCCC(C)C)n3nc(-c4ccccc4)nc3c2cc1OC | 417 |
| CC1(C)N=C(NC(=O)Nc2ccc([N+](=O)[O-])cc2)N=C(N)N1OCc1cccc2ccccc12 | 59.5 |
| O=C(/C=C/c1ccc(Cl)c(Cl)c1)NCCCCCN1C2CCC1CC(c1c[nH]c3ccccc13)C2 (stereo not given) | 840 |
| CC(=O)Nc1ccc(OCCCCN(Cc2ccccc2C(F)(F)F)c2ccc(C(F)(F)F)c(C#N)c2)c(Cl)c1 | 545 |
| Cc1cccc2nc(-c3ccc(-c4ccc(CN5CCCCC5)cc4)cc3)[nH]c12 | 589 |
| COC(=O)C(Cc1ccccc1)NC(=O)NC1CCN(c2ccnc(Nc3ccc(F)cc3)n2)C1 (stereo not given) | 1090 |
| CCCCCCCCCCNCC(O)c1ccc(O)c(C(=O)OC)c1 (stereo not given) | 717 |
| CC1CN(Cc2ccc(-c3cccc(-c4nc5cc(F)ccc5[nH]4)c3)cc2)CC(C)O1 (stereo not given) | 917 |
| CCCOc1ccc(C(=O)Nc2nonc2-c2ccc(OC)c(OC)c2)cc1 | 991 |
| O=C(C=Cc1cn(-c2ccccc2)nc1-c1cccs1)N1CCN(c2ccncc2)CC1 | 721 |
| COc1cc(C)nc2ccc(NC(=O)c3ccc(C(=O)Nc4ccc5nc(C)cc(OC)c5c4)cc3)cc12 | 63.3 |
| Cc1cc2[nH]c(-c3ccc(C(=O)NCCCN4CCN(c5cccc(Cl)c5)CC4)s3)nc2cc1Cl | 653 |
| CN1CCN(c2ccc(Nc3ccnc4ccc(-c5ccccc5)cc34)cc2)CC1 | 92.9 |
| O=C(NCc1ccc(C(F)(F)F)cc1)c1cccc(-c2nnc(-c3cccc(-c4cncnc4)c3)o2)c1 | 544 |
| COc1cc(F)c2ncc(Cl)c(CCN3CCC(NCc4ccc5c(c4)NC(=O)CS5)CC3)c2c1 | 313 |
| O=C(c1cccc(-c2cccc(-c3nc4cc(C(F)(F)F)ccc4[nH]3)c2)c1)N1CCCCC1CN1CCC(O)C1 (stereo not given) | 279 |
| Cc1cc(NC(=O)Nc2ccc(C(C)C)cc2)c2ccccc2n1 | 662 |
| COC(=O)c1ccc(C[C@@H](C)NC[C@H](O)c2cccc(C(F)(F)F)c2)cc1 | 790 |

| SMILES | XC50 [nM] |
| --- | --- |
| CC(C)OCCCNC(=O)c1nc(-c2cccc(C(F)(F)F)c2)sc1C(C)C | 1160 |
| CNC(=O)c1cc(Nc2nnc(-c3ccc(C)c(S(=O)(=O)NC4CCCCC4)c3)c3ccccc23)ccc1OC | 904 |
| CCCC(C)Nc1nc(C)cc(N[C@@H](Cc2ccccc2)C(=O)NCCOc2ccccc2)n1 (stereo not given in full) | 699 |
| Oc1cccc(CCNCCCCCCNCCc2ccc(Cl)cc2)c1 | 774 |
| CCOC(=O)c1cc2c(CCN3C(=O)c4ccccc4C3=O)cn(C)c2cc1-c1ccncc1 | 583 |
| N#CN1CC[C@H](CS(=O)(=O)c2cccc(Br)c2)C1 | 874 |
| CCCCN(CCCC)CCNC(=O)c1cccc(NC(=O)N2CCc3cc(SC)c(C(F)(F)F)cc32)c1 | 809 |
| COc1cccc(CN2Cc3ccccc3OC3(CCN(Cc4c[nH]c5cnccc45)CC3)C2)c1 | 1300 |
| COc1cc(C(=O)NC2CCN(Cc3ccccc3)CC2)ccc1-c1nc2cc(Cl)c(C)cc2[nH]1 | 304 |
| CCN1CCN(Cc2ccc(-c3ccc(NS(=O)(=O)c4cccc5cccnc45)cc3)cc2)CC1 | 922 |
| N=C(N)NC(=O)Nc1ccc(Cl)c([N+](=O)[O-])c1 | 762 |
| Clc1ccc2nnc(-c3c(Cl)cccc3Cl)n2n1 | 905 |
| CN(C)c1ccc(-c2csc(C(=O)NCC3CCN(CCC(C)(C)C)C3)c2)cc1 (stereo not given) | 1500 |
| Cc1nc(C)c(-c2ccc(S(=O)(=O)c3ccc(Cl)cc3)cc2)c(O)c1Cl | 140 |
| N=C(N)c1ccc(NC(=O)Cc2nc3cc(C(=N)N)ccc3[nH]2)cc1 | 1380 |
| Nc1nc(N)c2c(ccc3c2cnn3S(=O)(=O)N2CCCC2)n1 | 18.6 |
| Cc1noc(C)c1-c1cccc(CNCc2ccc(-c3ccc(-c4nc5cc(F)ccc5[nH]4)s3)cc2)c1 | 423 |
| C/C=C1\CN2CC[C@H]1C[C@H]2[C@H](O)c1ccnc2ccc(O)cc12 | 601 |
| CCCCCN1CCC(NS(=O)(=O)c2cccc(C(=O)Nc3ccc(C(F)(F)F)cc3)c2)C1 (stereo not given) | 798 |
| COc1ccc2nccc([C@@H](O)CN3CCC(NCc4cc5ccccn5n4)CC3)c2c1 | 1570 |
| Cc1cccc2nc(-c3ccc(-c4cccc(CN5CCN(c6ccncc6)CC5)c4)cc3)[nH]c12 | 117 |
| Cc1[nH]c2ccc(-c3ccccc3)cc2c(=O)c1Br | 162 |
| O=C(Nc1ccc(Cl)c(C(F)(F)F)c1)N[C@H]1CCN(CCCCCNC(=O)C2CC2c2ccc(Cl)c(Cl)c2)C1 (stereo not given in full) | 1080 |

Reference: ChEMBL document CHEMBL1157539, “Thousands of chemical starting points for antimalarial lead identification” (Nature, 2010)
